We go through one molecule from US20230000753A1, “Encapsulated Cleansing Composition” (Henkel AG & Co. KGaA, priority 2020, published 2023).

The series concerns skin. Briefly: 5 day cumulative irritation patch study. In kind it is in vivo. The protocol: To evaluate the skin irritation potential of cleansing products, a 5 day cumulative irritation patch study was conducted. Cumulative irritancy patch testing is a modified primary irritancy patch test that can detect weak irritants that require multiple applications to cause a skin reaction. These reactions are due to direct damage to the epidermal cells and no immunologic (allergic) mechanism is involved. The procedure used in the Examples is a modification of that described by Dr. B. M. Lanman at the Joint Conference on Cosmetic Sciences, Apr.

For `CCCCCCCCCCCCOS(=O)(=O)[O-].[Na+]` [0.25% SLS, sodium lauryl sulfate], the “Irritancy Class” value is reported as “Moderately” and the “Normalized Total Score” value is on record as 290.2.
